Laboratory results reported in PubChem BioAssay (NCI).
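Step 1: Grow cells in 96-well plates. Step 2: Expose to compound for 48 hours at 5 concentrations. Step 3: Interpolate endpoints linearly; if unreached, use highest concentration. GI50 = concentration required for 50% inhibition of growth. The concentration for full growth arrest is given as TGI.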

What was measured:
Test in all cases: NCI-60 cell line screen, 48 h
EKVX NSCLC = system: EKVX NSCLC
KM12 colon = system: KM12 colon
SF-268 CNS = system: SF-268 CNS
ACHN renal = system: ACHN renal
TK-10 renal = system: TK-10 renal
RXF 393 renal = system: RXF 393 renal
SR leukemia = system: SR leukemia
RPMI-8226 leukemia = system: RPMI-8226 leukemia
SK-MEL-2 melanoma = system: SK-MEL-2 melanoma
IGROV1 ovarian = system: IGROV1 ovarian
SNB-75 CNS = system: SNB-75 CNS
A549 NSCLC = system: A549 NSCLC
NCI-H23 lung = system: NCI-H23 lung
SW-620 colon = system: SW-620 colon
HOP-62 NSCLC = system: HOP-62 NSCLC
K-562 leukemia = system: K-562 leukemia
MDA-MB-231 breast = system: MDA-MB-231 breast
SF-295 CNS = system: SF-295 CNS
A498 renal = system: A498 renal
BT-549 breast = system: BT-549 breast
CAKI-1 renal = system: CAKI-1 renal
MDA-MB-435 = system: MDA-MB-435
MOLT-4 leukemia = system: MOLT-4 leukemia
HCT-116 colon = system: HCT-116 colon
SK-MEL-5 melanoma = system: SK-MEL-5 melanoma
HCC-2998 colon = system: HCC-2998 colon
SF-539 CNS = system: SF-539 CNS
MDA-MB-468 breast = system: MDA-MB-468 breast
COLO 205 colon = system: COLO 205 colon
786-0 renal = system: 786-0 renal
NCI-H522 lung = system: NCI-H522 lung
MCF7 breast = system: MCF7 breast
T-47D breast = system: T-47D breast
M14 melanoma = system: M14 melanoma
SNB-19 CNS = system: SNB-19 CNS
DU-145 prostate = system: DU-145 prostate
LOX IMVI melanoma = system: LOX IMVI melanoma
SK-OV-3 ovarian = system: SK-OV-3 ovarian
OVCAR-8 ovarian = system: OVCAR-8 ovarian
CCRF-CEM leukemia = system: CCRF-CEM leukemia
NCI-H226 lung = system: NCI-H226 lung
HOP-92 NSCLC = system: HOP-92 NSCLC
SN12C renal = system: SN12C renal
UO-31 renal = system: UO-31 renal
NCI-H460 lung = system: NCI-H460 lung
NCI/ADR-RES ovarian = system: NCI/ADR-RES ovarian
HT29 colon = system: HT29 colon
UACC-257 melanoma = system: UACC-257 melanoma
PC-3 prostate = system: PC-3 prostate
HS 578T breast = system: HS 578T breast
OVCAR-4 ovarian = system: OVCAR-4 ovarian
HCT-15 colon = system: HCT-15 colon
SK-MEL-28 melanoma = system: SK-MEL-28 melanoma
OVCAR-3 ovarian = system: OVCAR-3 ovarian
UACC-62 melanoma = system: UACC-62 melanoma
HL-60(TB) leukemia = system: HL-60(TB) leukemia
U251 CNS = system: U251 CNS
MALME-3M melanoma = system: MALME-3M melanoma
OVCAR-5 ovarian = system: OVCAR-5 ovarian

`CC(=O)Nc1nc(-c2ccc(N3CCN(C)CC3)c(NS(=O)(=O)c3ccc(C(F)(F)F)cc3)c2)cs1` was tested, and the GI50 (EKVX NSCLC) was 7.41 µM, the TGI (EKVX NSCLC) was 14.5 µM and the GI50 (KM12 colon) was 7.55 µM. It also gave a TGI (KM12 colon) of 16.4 µM, a GI50 (SF-268 CNS) of 6.99 µM and a TGI (SF-268 CNS) of 16.4 µM. The GI50 (ACHN renal) was 4.67 µM, the TGI (ACHN renal) was 11.1 µM and the GI50 (TK-10 renal) was 7.04 µM. It also gave a TGI (TK-10 renal) of 14 µM, a GI50 (RXF 393 renal) of 2.61 µM and a TGI (RXF 393 renal) of 9.24 µM. The GI50 (SR leukemia) was 1.98 µM, the TGI (SR leukemia) was 37.6 µM and the GI50 (RPMI-8226 leukemia) was 2.16 µM. It also gave a TGI (RPMI-8226 leukemia) of 53 µM, a GI50 (SK-MEL-2 melanoma) of 7.27 µM and a TGI (SK-MEL-2 melanoma) of 14.4 µM. The GI50 (IGROV1 ovarian) was 6.41 µM, the TGI (IGROV1 ovarian) was 13 µM and the GI50 (SNB-75 CNS) was 2.44 µM. It also gave a TGI (SNB-75 CNS) of 9.48 µM, a GI50 (A549 NSCLC) of 7.24 µM and a TGI (A549 NSCLC) of 16.3 µM. For the same molecule, the GI50 (NCI-H23 lung) was 8.11 µM, the TGI (NCI-H23 lung) was 15.8 µM and the GI50 (SW-620 colon) was 3.21 µM. The TGI (SW-620 colon) was 11.3 µM, the GI50 (HOP-62 NSCLC) was 9.06 µM and the TGI (HOP-62 NSCLC) was 17.2 µM. For the same molecule, the GI50 (K-562 leukemia) was 5.47 µM, the TGI (K-562 leukemia) was 53 µM and the GI50 (MDA-MB-231 breast) was 5.78 µM. It also gave a TGI (MDA-MB-231 breast) of 12.4 µM, a GI50 (SF-295 CNS) of 6.51 µM and a TGI (SF-295 CNS) of 13.4 µM. For the same molecule, the GI50 (A498 renal) was 6.64 µM, the TGI (A498 renal) was 13.5 µM and the GI50 (BT-549 breast) was 5.83 µM. For the same molecule, the TGI (BT-549 breast) was 12.8 µM, the GI50 (CAKI-1 renal) was 3.91 µM and the TGI (CAKI-1 renal) was 11 µM. The GI50 (MDA-MB-435) was 4.08 µM, the TGI (MDA-MB-435) was 12.6 µM and the GI50 (MOLT-4 leukemia) was 5.34 µM. The TGI (MOLT-4 leukemia) was 23.6 µM, the GI50 (HCT-116 colon) was 3.01 µM and the TGI (HCT-116 colon) was 11.9 µM. It also gave a GI50 (SK-MEL-5 melanoma) of 6 µM, a TGI (SK-MEL-5 melanoma) of 12.5 µM and a GI50 (HCC-2998 colon) of 7.51 µM. It also gave a TGI (HCC-2998 colon) of 14.5 µM, a GI50 (SF-539 CNS) of 4.12 µM and a TGI (SF-539 CNS) of 10.8 µM. It also gave a GI50 (MDA-MB-468 breast) of 2.04 µM, a TGI (MDA-MB-468 breast) of 7.95 µM and a GI50 (COLO 205 colon) of 7.95 µM. It also gave a TGI (COLO 205 colon) of 18.7 µM, a GI50 (786-0 renal) of 5.18 µM and a TGI (786-0 renal) of 12.6 µM. For the same molecule, the GI50 (NCI-H522 lung) was 3.62 µM, the TGI (NCI-H522 lung) was 10.8 µM and the GI50 (MCF7 breast) was 2.58 µM. For the same molecule, the TGI (MCF7 breast) was 10.6 µM, the GI50 (T-47D breast) was 4.71 µM and the TGI (T-47D breast) was 13.2 µM. The GI50 (M14 melanoma) was 7.25 µM, the TGI (M14 melanoma) was 17.1 µM and the GI50 (SNB-19 CNS) was 7.82 µM. The TGI (SNB-19 CNS) was 14.8 µM, the GI50 (DU-145 prostate) was 6.51 µM and the TGI (DU-145 prostate) was 14.5 µM. It also gave a GI50 (LOX IMVI melanoma) of 2.46 µM, a TGI (LOX IMVI melanoma) of 8.87 µM and a GI50 (SK-OV-3 ovarian) of 10 µM. For the same molecule, the TGI (SK-OV-3 ovarian) was 19.6 µM, the GI50 (OVCAR-8 ovarian) was 8.2 µM and the TGI (OVCAR-8 ovarian) was 23.9 µM. For the same molecule, the GI50 (CCRF-CEM leukemia) was 1.97 µM, the TGI (CCRF-CEM leukemia) was 9.86 µM and the GI50 (NCI-H226 lung) was 8.25 µM. For the same molecule, the TGI (NCI-H226 lung) was 19.1 µM, the GI50 (HOP-92 NSCLC) was 5.34 µM and the TGI (HOP-92 NSCLC) was 14.1 µM. It also gave a GI50 (SN12C renal) of 6.19 µM, a TGI (SN12C renal) of 12.7 µM and a GI50 (UO-31 renal) of 6.13 µM. For the same molecule, the TGI (UO-31 renal) was 12.6 µM, the GI50 (NCI-H460 lung) was 6.77 µM and the TGI (NCI-H460 lung) was 14.8 µM. The GI50 (NCI/ADR-RES ovarian) was 6.97 µM, the TGI (NCI/ADR-RES ovarian) was 21.6 µM and the GI50 (HT29 colon) was 4.77 µM. It also gave a TGI (HT29 colon) of 16 µM, a GI50 (UACC-257 melanoma) of 6.76 µM and a TGI (UACC-257 melanoma) of 14 µM. It also gave a GI50 (PC-3 prostate) of 6.33 µM, a TGI (PC-3 prostate) of 17.2 µM and a GI50 (HS 578T breast) of 5.77 µM. It also gave a TGI (HS 578T breast) of 20.2 µM, a GI50 (OVCAR-4 ovarian) of 6.72 µM and a TGI (OVCAR-4 ovarian) of 14.6 µM. It also gave a GI50 (HCT-15 colon) of 3.18 µM, a TGI (HCT-15 colon) of 10.8 µM and a GI50 (SK-MEL-28 melanoma) of 7.72 µM. It also gave a TGI (SK-MEL-28 melanoma) of 14.7 µM, a GI50 (OVCAR-3 ovarian) of 3.06 µM and a TGI (OVCAR-3 ovarian) of 10.6 µM. The GI50 (UACC-62 melanoma) was 6.08 µM, the TGI (UACC-62 melanoma) was 12.6 µM and the GI50 (HL-60(TB) leukemia) was 3.35 µM. It also gave a TGI (HL-60(TB) leukemia) of 19.1 µM, a GI50 (U251 CNS) of 7.52 µM and a TGI (U251 CNS) of 15 µM. The GI50 (MALME-3M melanoma) was 6.73 µM, the TGI (MALME-3M melanoma) was 13.5 µM and the GI50 (OVCAR-5 ovarian) was 7.63 µM. For the same molecule, the TGI (OVCAR-5 ovarian) was 14.7 µM.
